Source: US20250017907A1, “METHOD FOR PREVENTING AND/OR TREATING LIVER FIBROSIS BY USING 6-METHOXYBENZOXAZOLINONE AND COIX LACHRYMA-JOBI L. EXTRACT COMPRISING 6-METHOXYBENZOXAZOLINONE” (Taichung District Agricultural Research and Extension …, priority 2023, published 2025)

Test system: TAA-induced liver fibrotic C57BL/6J mice
Experiment: Serum biochemical analysis (liver function and nutrient metabolism)
Type: in vivo
Conditions: CX groups (20 and 50 mg/kg oral, 6 weeks); vs TAA group
Procedure: For tests of adlay extracts, mice were randomly divided into the following seven groups (n=6, per group): (1) No treatment group (NT, normal diet), (2) Thioacetamide group (TAA, 200 mg/kg, normal diet), (3) 10% adlay seed powder (ASP) group, (4) 1% adlay leaf powder (ALP) group, (5) 1% adlay seed polysaccharide (ASPS) group, (6) 0.025% adlay seed ethanolic extract (ASE) group and (7) 0.1% ASE group. NT group received pure saline, and other groups intraperitoneally injected with TAA dissolved into saline thrice a week.
For tests of CX, mice were randomly divided into the following four groups (n=8, per group): (1) NT group, (2) TAA group (200 mg/kg), (3) CX group (CX20, 20 mg/kg), and (4) CX group (CX50, 50 mg/kg). NT group received pure saline, and other groups intraperitoneally injected with TAA dissolved into saline thrice a week. Moreover, NT group and TAA group also received 5% propylene glycol, while CX groups received CX dissolved into 5% propylene glycol (prepared in 0.9% saline) by oral gavage once per day.
At the end of the experiment, the mice were sacrificed. Serum was obtained from the whole blood of mice after centrifuging and stored at −80° C., and the liver tissues were collected and used for the tissue histological staining.
The procedure of biochemical analysis is as follows. The levels of serum alanine aminotransferase (ALT), aspartate aminotransferase (AST), total bilirubin (TBIL), alkaline phosphatase (ALP), total cholesterol (TC), total glyceride (TG), and glucose were measured with the chemistry analyzer. Briefly, after centrifuging the whole blood from mice, collected the serum, dropped the serum at the tested chips for analysis with an Automated Clinical Chemistry Analyzer (Fuji, Japan).

In the case of `COc1ccc2[nH]c(=O)oc2c1` [CX, 6-methoxybenzoxazolinone], the “changes in serum TC level caused by TAA” value is reported as “significantly reduced”, the “changes in serum TG level caused by TAA” value is reported as “significantly reduced” and the “changes in serum glucose level caused by TAA” value is reported as “significantly reduced”. For the same molecule, the “serum ALP” value was “decreased significantly”, the “serum ALT” value was “decreased significantly” and the “serum AST” value was “decreased significantly”. The “serum TBIL” value was “decreased significantly”.
